Consider 26 compounds from publication PMC9956102, “Structural Insights on Hyp-Gly-Containing Peptides as Antiplatelet Compounds through Topomer CoMFA and CoMSIA Analysis” (Foods, 2023).

Broadly, the IC50 is the concentration that inhibits the measured activity by half. Low values mean greater potency in that assay, high ones weaker potency in that assay.

Where a name gives a salt, the structure may show the parent alone. Peptide text beside a SMILES is read from it.

One data set relates to thrombus formation.
Test: not given
The note with it: oral administration; cited from earlier work. An excerpt: Collagen is a natural source of bioactive peptides and widely distributed in skin and bone tissue, which has a unique triple-helix structure with a repeated amino acid sequence of (Gly-X-Y)n, in which X and Y are typically Pro and Hyp. Hyp-Gly-containing peptides are abundant in collagen, and a large quantity of these peptides could be released after hydrolysis.
Take “OGEFG [peptide identified from Salmo Salar skin in a previous study]”: the “thrombus formation in vivo” value is recorded as “attenuates thrombus formation without bleeding risks”.

System in a further data set: not listed separately
Nature of the data set: Coagulation parameters (PT, APTT, TT) after oral administration. As to conditions: SD rats, 65 μmol/kg bw, n = 6. It counts as in vivo, rat. An excerpt: The prothrombin time (PT), activated partial thromboplastin time (APTT), and thrombin time (TT) assay methods refer to our previous study. PT, APTT, and TT detection kits (Siemens, Shanghai, China) were employed for the determination of coagulation parameters according to the manufacturer’s instructions.
As for `COC(=O)[C@H](c1ccccc1Cl)N1CCc2sccc2C1` [clopidogrel, Clopidogrel hydrogen sulfate, reference compound], the “PT (prothrombin time)” value is “altered the TT and PT significantly”; the “TT (thrombin time)” value was “altered the TT and PT significantly”.

Staying with this data set, now noted: SD rats, 200 μmol/kg b.w., n = 6.
Take `N[C@@H](CCC(=O)O)C(=O)N1C[C@H](O)C[C@H]1C(=O)NCC(=O)N[C@@H](CCC(=O)O)C(=O)O` [EOGE, Glu-Hyp-Gly-Glu] (HELM PEPTIDE1{E.[Hyp].G.E}$$$$V2.0): the “coagulation parameters, including PT, TT, and APTT” value is on record as “no significant effect”.

The data set is the same for the next values; noted with them: SD rats, 300 μmol/kg b.w., n = 6.
Turning to `N[C@@H](CCC(=O)O)C(=O)N1C[C@H](O)C[C@H]1C(=O)NCC(=O)N[C@@H](CCC(=O)O)C(=O)O` [EOGE, Glu-Hyp-Gly-Glu] (HELM PEPTIDE1{E.[Hyp].G.E}$$$$V2.0), the “coagulation parameters, including PT, TT, and APTT” value is on record as “no significant effect”.

A further data set deals with ADP-induced platelet aggregation.
Test: not given
It counts as cell-based, rat.
Conditions: not given
How it is done: The platelet was isolated from rat aorta blood and mixed with sodium citrate (1:9, v/v) as previously described with some modifications. Briefly, anticoagulated blood was centrifuged (50× g, 10 min) to obtain platelet-rich plasma (PRP). The residue was centrifuged at 750× g for 10 min to collect the platelet-poor plasma (PPP), and PRP was diluted to 2–3 × 10^8 with PPP.
Inhibition of platelet aggregation induced by ADP was measured with a four-channel aggregometer as previously described. Aliquots of 270 μL of PRP were incubated with 30 μL of PPP or peptides with different concentrations at 37 °C for 5 min. After incubation, platelet aggregation was induced by adding 30 μL of ADP (0.1 mM). The platelet aggregation at 5 min was recorded, and the inhibition rate was calculated as follows. Inhibition of platelet aggregation (%) = [1 − platelet aggregation (sample)/platelet aggregation (control)] × 100
The IC50 value of platelet aggregation was calculated by Graphpad Prism 6.0.
`N[C@@H](CC(=O)O)C(=O)N1C[C@H](O)C[C@H]1C(=O)NCC(=O)N[C@@H](CCC(=O)O)C(=O)O` [DOGE] (HELM PEPTIDE1{D.[Hyp].G.E}$$$$V2.0) registered a half-maximal inhibitory concentration (IC50) of 661 µM. Compound `N[C@@H](CCC(=O)O)C(=O)N1C[C@H](O)C[C@H]1C(=O)NCC(=O)N[C@@H](CCC(=O)O)C(=O)O` [EOGE, Glu-Hyp-Gly-Glu] (HELM PEPTIDE1{E.[Hyp].G.E}$$$$V2.0) returned an IC50 of 390 µM. Turning to `N[C@@H](CCC(=O)O)C(=O)N1C[C@H](O)C[C@H]1C(=O)NCC(=O)O` [EOG] (HELM PEPTIDE1{E.[Hyp].G}$$$$V2.0; N-terminus and C-terminus assumed), the IC50 is 395 µM. The IC50 values of the last two compounds are within 1.5-fold of each other. In turn, `NCC(=O)N[C@@H](CCC(=O)O)C(=O)N1C[C@H](O)C[C@H]1C(=O)NCC(=O)O` [GEOG] (HELM PEPTIDE1{G.E.[Hyp].G}$$$$V2.0) showed an IC50 of 878 µM.

In turn, `NCC(=O)N1C[C@H](O)C[C@H]1C(=O)N1C[C@H](O)C[C@H]1C(=O)NCC(=O)N1CCC[C@H]1C(=O)N[C@@H](CCC(N)=O)C(=O)O` [GOOGPQ] (HELM PEPTIDE1{G.[Hyp].[Hyp].G.P.Q}$$$$V2.0; N-terminus and C-terminus assumed) had an IC50 of 2080 µM. As for `CSCC[C@H](NC(=O)[C@@H]1CCCN1C(=O)CNC(=O)[C@@H]1CCCN1C(=O)[C@@H]1C[C@@H](O)CN1C(=O)CN)C(=O)O` [GOPGPM] (HELM PEPTIDE1{G.[Hyp].P.G.P.M}$$$$V2.0; N-terminus and C-terminus assumed), half-maximal inhibition (IC50) required 5340 µM.

Regarding `O=C(O)C[C@H](NC(=O)CNC(=O)[C@@H]1C[C@@H](O)CN1)C(=O)O` [OGD] (HELM PEPTIDE1{[Hyp].G.D}$$$$V2.0; N-terminus and C-terminus assumed), the IC50 was 435 µM. Still for that read-out and setting: then `O=C(O)CC[C@H](NC(=O)CNC(=O)[C@@H]1C[C@@H](O)CN1)C(=O)O` [OGE] (HELM PEPTIDE1{[Hyp].G.E}$$$$V2.0; N-terminus and C-terminus assumed), with 620 µM; and `CSCC[C@H](NC(=O)[C@@H]1C[C@@H](O)CN1C(=O)CNC(=O)[C@@H]1C[C@@H](O)CN1)C(=O)NCC(=O)O` [OGOMG] (HELM PEPTIDE1{[Hyp].G.[Hyp].M.G}$$$$V2.0; N-terminus and C-terminus assumed), with 1490 µM. `O=C(NCC(=O)N1CCC[C@H]1C(=O)O)[C@@H]1C[C@@H](O)CN1` [OGP] (HELM PEPTIDE1{[Hyp].G.P}$$$$V2.0; N-terminus and C-terminus assumed) had an IC50 of 506 µM. Same read-out and setting: then `NC(=O)CC[C@H](NC(=O)CNC(=O)[C@@H]1C[C@@H](O)CN1)C(=O)O` [OGQ] (HELM PEPTIDE1{[Hyp].G.Q}$$$$V2.0; N-terminus and C-terminus assumed), with 760 µM; and `C[C@H](NC(=O)[C@H](CO)NC(=O)CNC(=O)[C@@H]1C[C@@H](O)CN1)C(=O)O` [OGSA] (HELM PEPTIDE1{[Hyp].G.S.A}$$$$V2.0), with 630 µM. Regarding `O=C(O)CC[C@H](NC(=O)[C@H](CO)NC(=O)CNC(=O)[C@@H]1C[C@@H](O)CN1)C(=O)O` [OGSE] (HELM PEPTIDE1{[Hyp].G.S.E}$$$$V2.0), half-maximal inhibition (IC50) required 558 µM.

Consider `O=C(O)CNC(=O)[C@@H]1C[C@@H](O)CN1` [OG] (HELM PEPTIDE1{[Hyp].G}$$$$V2.0), for which the midpoint of inhibition, the IC50, lay at 1420 µM. `O=C(O)CC[C@H](NC(=O)CNC(=O)[C@@H]1C[C@@H](O)CN1C(=O)[C@H](CCC(=O)O)NC(=O)CNC(=O)[C@@H]1CCCN1)C(=O)O` [PGEOGE] (HELM PEPTIDE1{P.G.E.[Hyp].G.E}$$$$V2.0; N-terminus and C-terminus assumed) had an IC50 of 317 µM. This IC50 lies about 4.5-fold lower than the previous one. Compound `O=C(O)CC[C@H](NC(=O)CNC(=O)[C@@H]1CCCN1)C(=O)N1C[C@H](O)C[C@H]1C(=O)NCC(=O)O` [PGEOG] (HELM PEPTIDE1{P.G.E.[Hyp].G}$$$$V2.0; N-terminus and C-terminus assumed) gave an IC50 of 857 µM. On the same count and under the same terms, as for `O=C(O)CC[C@H](NC(=O)CNC(=O)[C@@H]1CCCN1)C(=O)O` [PGE] (H-Pro-Gly-Glu-OH; N-terminus and C-terminus assumed), the figure is 927 µM; as for `O=C(CNC(=O)[C@@H]1CCCN1)N[C@@H](Cc1c[nH]cn1)C(=O)N[C@@H](Cc1c[nH]cn1)C(=O)O` [PGHH], 1400 µM; as for `NCCCC[C@H](NC(=O)CNC(=O)[C@@H]1CCCN1)C(=O)N1CCC[C@H]1C(=O)O` [PGKP] (H-PGKP-OH), 2570 µM.

In the case of `NCCCC[C@H](NC(=O)[C@@H]1CCCN1C(=O)CNC(=O)[C@@H]1CCCN1)C(=O)O` [PGPK] (H-PGPK-OH), the concentration for half-maximal inhibition (IC50) came out at 2790 µM. The compound `NC(=O)CC[C@H](NC(=O)[C@@H]1CCCN1C(=O)CNC(=O)[C@@H]1CCCN1)C(=O)O` [PGPQ] (H-PGPQ-OH) displayed an IC50 of 3560 µM. Same read-out and setting: as for `NC(=O)CC[C@H](NC(=O)CNC(=O)[C@@H]1CCCN1)C(=O)N1CCC[C@H]1C(=O)O` [PGQP] (H-PGQP-OH), the figure is 2410 µM. For the compound `O=C(O)CNC(=O)[C@@H]1CCCN1` [PG] (H-Pro-Gly-OH; N-terminus and C-terminus assumed), half-maximal inhibition (IC50) was put at 3640 µM. Compared with the last compound, the IC50 is about 1.5-fold higher. The compound `CC(C)[C@H](N)C(=O)NCC(=O)N1CCC[C@H]1C(=O)N1C[C@H](O)C[C@H]1C(=O)NCC(=O)N1CCC[C@H]1C(=O)N[C@@H](C)C(=O)O` [VGPOGPA] (HELM PEPTIDE1{V.G.P.[Hyp].G.P.A}$$$$V2.0; N-terminus and C-terminus assumed) came in with an IC50 of 2450 µM.

System in another data set: not listed separately
Nature of the data set: Thymus index and spleen index. The note with it: SD rats, oral, 65 μmol/kg bw, n = 6. It counts as in vivo, rat. As for the experimental part: After the rats were sacrificed, the thymuses and spleens were collected and weighed to obtain the thymus index (TI) and spleen index (SI). The TI and SI were calculated according to the following equation: TI/SI (mg/g) = (weight of thymus/spleen)/body weight.
As to `COC(=O)[C@H](c1ccccc1Cl)N1CCc2sccc2C1` [clopidogrel, Clopidogrel hydrogen sulfate, reference compound], the “thymus index (TI) and spleen index (SI) compared to vehicle group” value (shortened to “thymus index (TI) and spleen index (SI)”) is “no significant difference”.

Still in this data set, the particulars now being: SD rats, oral, 200 μmol/kg b.w., n = 6.
With `N[C@@H](CCC(=O)O)C(=O)N1C[C@H](O)C[C@H]1C(=O)NCC(=O)N[C@@H](CCC(=O)O)C(=O)O` [EOGE, Glu-Hyp-Gly-Glu] (HELM PEPTIDE1{E.[Hyp].G.E}$$$$V2.0), the “thymus index (TI) and spleen index (SI)” value is given as “no significant difference”.

The same data set, now with this note: SD rats, oral, 300 μmol/kg b.w., n = 6.
`N[C@@H](CCC(=O)O)C(=O)N1C[C@H](O)C[C@H]1C(=O)NCC(=O)N[C@@H](CCC(=O)O)C(=O)O` [EOGE, Glu-Hyp-Gly-Glu] (HELM PEPTIDE1{E.[Hyp].G.E}$$$$V2.0): the “thymus index (TI) and spleen index (SI)” value is “no significant difference”.
